# Source: patent US8952024B2, “Herbicidal pyrimidone derivatives” (E I du Pont de Nemours and Company, priority 2009, dated 2015)
# Legend:
# Type in all cases: in vivo
# [1] = test system: Italian ryegrass (Lolium multiflorum); assay: Test B pre-/postemergence plant response
# Summary of the method: (§1)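 Response scores were assigned visually after 13 to 15 days in a greenhouse, comparing treated pots with controls on a 0–100 scale where 100 denotes complete control. Preemergence treatments went onto freshly seeded loam/sand soil; postemergence treatments onto plants 2 to 18 cm tall.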
# [2] = test system: Surinam grass (Brachiaria decumbens); assay: Test B pre-/postemergence plant response
# Summary of the method: as §1
# [3] = test system: bermudagrass (Cynodon dactylon); assay: Test B pre-/postemergence plant response
# Summary of the method: as §1
# [4] = test system: blackgrass (Alopecurus myosuroides); assay: Test B pre-/postemergence plant response
# Summary of the method: as §1
# corn (Zea mays) = assay: Test B pre-/postemergence plant response
# Summary of the method: as §1
# [5] = test system: johnsongrass (Sorghum halepense); assay: Test B pre-/postemergence plant response
# Summary of the method: as §1
# [6] = test system: lambsquarters (Chenopodium album); assay: Test B pre-/postemergence plant response
# Summary of the method: as §1
# [7] = test system: large crabgrass (Digitaria sanguinalis); assay: Test B pre-/postemergence plant response
# Summary of the method: as §1
# [8] = test system: ragweed (common ragweed, Ambrosia elatior); assay: Test B pre-/postemergence plant response
# Summary of the method: as §1
# soybean (Glycine max) = assay: Test B pre-/postemergence plant response
# Summary of the method: as §1
# [9] = test system: velvetleaf (Abutilon theophrasti); assay: Test B pre-/postemergence plant response
# Summary of the method: as §1
# wild oat (Avena fatua) = assay: Test B pre-/postemergence plant response
# Summary of the method: as §1
# [10] = test system: woolly cupgrass (Eriochloa villosa); assay: Test B pre-/postemergence plant response
# Summary of the method: as §1
# [11] = test system: yellow nutsedge (Cyperus esculentus); assay: Test B pre-/postemergence plant response
# Summary of the method: as §1
# [12] = test system: canarygrass (Phalaris minor); assay: Test B postemergence plant response
# Summary of the method: (§2)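 Visual ratings from 0 (no effect) to 100 (complete control), made against controls 13–15 days after treatment, kept in a greenhouse. Compounds were applied postemergence to potted plants at the 1- to 4-leaf stage (2–18 cm).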
# [13] = test system: chickweed (Stellaria media); assay: Test B postemergence plant response
# Summary of the method: as §2
# [14] = test system: windgrass (Apera spica-venti); assay: Test B postemergence plant response
# Summary of the method: as §2
# [15] = test system: winter barley (Hordeum vulgare); assay: Test B postemergence plant response
# Summary of the method: as §2
# [16] = 31 g ai/ha, postemergence, scale 0 to 100, 0 is no effect, 100 is complete control
# [17] = 250 g ai/ha, Preemergence, 0 to 100 scale
# [18] = Postemergence, 62 g ai/ha, scale 0 (no effect) to 100 (complete control), 13 to 15 days
# [19] = Postemergence, 125 g ai/ha, visual rating after 13 to 15 days, scale 0 (no effect) to 100 (complete control)
# [20] = Preemergence, 31 g ai/ha, scale 0 to 100 (0 no effect, 100 complete control)
# [21] = Preemergence, 125 g ai/ha, 0 to 100 scale
# [22] = Postemergence, 250 g ai/ha, scale 0 to 100
# [23] = Preemergence, 62 g ai/ha, scale 0 to 100, 0 no effect, 100 complete control
compound,measurement,setting,value
CCn1c(-c2ccccc2)ncc(C(=O)C2=C(O)CCCC2=O)c1=O [Compound 49],"Plant response rating, Ryegrass, Italian",[1]; [16],0
same,"Plant response rating, Ryegrass, Italian",[1]; [17],5
same,"Plant response rating, Ryegrass, Italian",[1]; [18],0
same,"Plant response rating, Ryegrass, Italian",[1]; [19],0
same,"Plant response rating, Ryegrass, Italian",[1]; [20],0
same,"Ryegrass, Italian plant response rating",[1]; [21],0
same,"Plant response rating, Surinam Grass",[2]; [16],15
same,"Plant response rating, Surinam Grass",[2]; [17],85
same,"Plant response rating, Surinam Grass",[2]; [18],30
same,"Plant response rating, Surinam Grass",[2]; [19],55
same,"Plant response rating, Surinam Grass",[2]; [20],0
same,Surinam Grass plant response rating,[2]; [21],75
same,"Plant response rating, Bermudagrass",[3]; [16],75
same,"Plant response rating, Bermudagrass",[3]; [17],100
same,"Plant response rating, Bermudagrass",[3]; [18],85
same,"Plant response rating, Bermudagrass",[3]; [19],95
same,Bermudagrass plant response rating,[3]; [22],98
same,Bermudagrass plant response rating,[3]; [21],98
same,"Plant response rating, Blackgrass",[4]; [16],0
same,"Plant response rating, Blackgrass",[4]; [17],0
same,"Plant response rating, Blackgrass",[4]; [18],0
same,"Plant response rating, Blackgrass",[4]; [19],0
same,Blackgrass plant response rating,[4]; [22],30
same,"Plant response rating, Blackgrass",[4]; [20],0
same,"Plant response rating, Blackgrass",[4]; [23],0
same,Blackgrass plant response rating,[4]; [21],0
same,"Plant response rating, Corn",corn (Zea mays); [16],5
same,"Plant response rating, Corn",corn (Zea mays); [17],0
same,"Plant response rating, Corn",corn (Zea mays); [18],5
same,"Plant response rating, Corn",corn (Zea mays); [19],5
same,Corn plant response rating,corn (Zea mays); [22],15
same,"Plant response rating, Corn",corn (Zea mays); [20],0
same,"Plant response rating, Corn",corn (Zea mays); [23],0
same,Corn plant response rating,corn (Zea mays); [21],0
same,"Plant response rating, Johnsongrass",[5]; [16],0
same,"Plant response rating, Johnsongrass",[5]; [17],10
same,"Plant response rating, Johnsongrass",[5]; [18],0
same,"Plant response rating, Johnsongrass",[5]; [19],10
same,Johnsongrass plant response rating,[5]; [22],10
same,"Plant response rating, Johnsongrass",[5]; [20],0
same,"Plant response rating, Johnsongrass",[5]; [23],0
same,Johnsongrass plant response rating,[5]; [21],0
same,"Plant response rating, Lambsquarters",[6]; [16],70
same,"Plant response rating, Lambsquarters",[6]; [17],98
same,"Plant response rating, Lambsquarters",[6]; [18],80
same,"Plant response rating, Lambsquarters",[6]; [19],90
same,Lambsquarters plant response rating,[6]; [22],98
same,"Plant response rating, Lambsquarters",[6]; [20],95
same,"Plant response rating, Lambsquarters",[6]; [23],95
same,Lambsquarters plant response rating,[6]; [21],98
same,"Plant response rating, Crabgrass, Large",[7]; [16],75
same,"Plant response rating, Crabgrass, Large",[7]; [17],100
same,"Plant response rating, Crabgrass, Large",[7]; [18],75
same,"Plant response rating, Crabgrass, Large",[7]; [19],80
same,"Crabgrass, Large plant response rating",[7]; [22],85
same,"Plant response rating, Crabgrass, Large",[7]; [20],75
same,"Plant response rating, Crabgrass, Large",[7]; [23],95
same,"Crabgrass, Large plant response rating",[7]; [21],98
same,"Plant response rating, Ragweed",[8]; [16],75
same,"Plant response rating, Ragweed",[8]; [17],95
same,"Plant response rating, Ragweed",[8]; [18],80
same,"Plant response rating, Ragweed",[8]; [19],80
same,"Plant response rating, Ragweed",[8]; [20],70
same,Ragweed plant response rating,[8]; [21],80
same,"Plant response rating, Soybean",soybean (Glycine max); [16],55
same,"Plant response rating, Soybean",soybean (Glycine max); [17],85
same,"Plant response rating, Soybean",soybean (Glycine max); [18],65
same,"Plant response rating, Soybean",soybean (Glycine max); [19],85
same,"Plant response rating, Soybean",soybean (Glycine max); [20],0
same,Soybean plant response rating,soybean (Glycine max); [21],85
same,"Plant response rating, Velvetleaf",[9]; [16],90
same,"Plant response rating, Velvetleaf",[9]; [17],100
same,"Plant response rating, Velvetleaf",[9]; [18],95
same,"Plant response rating, Velvetleaf",[9]; [19],98
same,"Plant response rating, Velvetleaf",[9]; [20],95
same,Velvetleaf plant response rating,[9]; [21],100
same,"Plant response rating, Oat, Wild",wild oat (Avena fatua); [16],0
same,"Plant response rating, Oat, Wild",wild oat (Avena fatua); [17],0
same,"Plant response rating, Oat, Wild",wild oat (Avena fatua); [18],5
same,"Plant response rating, Oat, Wild",wild oat (Avena fatua); [19],5
same,"Plant response rating, Oat, Wild",wild oat (Avena fatua); [20],0
same,"Oat, Wild plant response rating",wild oat (Avena fatua); [21],0
same,"Plant response rating, Cupgrass, Woolly",[10]; [16],50
same,"Plant response rating, Cupgrass, Woolly",[10]; [17],20
same,"Plant response rating, Cupgrass, Woolly",[10]; [18],50
same,"Plant response rating, Cupgrass, Woolly",[10]; [19],55
same,"Cupgrass, Woolly plant response rating",[10]; [22],55
same,"Plant response rating, Cupgrass, Woolly",[10]; [20],0
same,"Plant response rating, Cupgrass, Woolly",[10]; [23],0
same,"Cupgrass, Woolly plant response rating",[10]; [21],0
same,"Plant response rating, Nutsedge, Yellow",[11]; [16],65
same,"Plant response rating, Nutsedge, Yellow",[11]; [17],90
same,"Plant response rating, Nutsedge, Yellow",[11]; [18],65
same,"Plant response rating, Nutsedge, Yellow",[11]; [19],70
same,"Plant response rating, Nutsedge, Yellow",[11]; [20],60
same,"Nutsedge, Yellow plant response rating",[11]; [21],85
same,"Plant response rating, Canarygrass",[12]; [16],0
same,"Plant response rating, Canarygrass",[12]; [18],0
same,"Plant response rating, Canarygrass",[12]; [19],0
same,Canarygrass plant response rating,[12]; [22],0
same,"Plant response rating, Chickweed",[13]; [16],75
same,"Plant response rating, Chickweed",[13]; [18],75
same,"Plant response rating, Chickweed",[13]; [19],80
same,Chickweed plant response rating,[13]; [22],90
same,"Plant response rating, Windgrass",[14]; [16],0
same,"Plant response rating, Windgrass",[14]; [18],0
same,"Plant response rating, Windgrass",[14]; [19],5
same,"Plant response rating, Barley",[15]; [16],0
same,"Plant response rating, Barley",[15]; [18],0
same,"Plant response rating, Barley",[15]; [19],0
same,Barley plant response rating,[15]; [22],0
